Assay results: patent publication US12545677B2, “Compounds useful as factor XIa inhibitors” (JANSSEN PHARMACEUTICA NV, priority 2020, dated 2026)

System: TK6 human lymphoblastoid cell line
Assay: In vitro micronucleus assay
Format: cell-based
Conditions: TK6 cells, 3 h +S9 and continuous -S9; score of 1 = clearly negative
Procedure: Biological Example 8: In Vitro Micronucleus Assay
The in vitro micronucleus test (MNT) is a genotoxicity test for the detection of micronuclei (MN) in the cytoplasm of interphase cells. Micronuclei may originate from acentric chromosome fragments (i.e., lacking a centromere) or whole chromosomes that are unable to migrate to the poles during the anaphase stage of cell division. Compounds and/or their metabolites are evaluated for their ability to induce chromosome/genome aberrations in a TK6 human lymphoblastoid cell line, in the absence and in the presence of a mammalian metabolic activation system. Human TK6 cells are often used in the in vitro micronucleus test and it is noteworthy that these cells have a wild-type p53 status, a feature that some groups speculate may help to reduce the frequency of false positive results. The assessment is done by means of manual and/or semi-automated microscopical analysis.
The in vitro micronucleus test using TK6 cells is an accepted regulatory genotoxicity assay. […]
Assay principle: Cell cultures were exposed to the test compound both with and without an exogenous source of metabolic activation. […] Harvested and stained interphase cells were analyzed for the presence of micronuclei. […]

Compound: O=C1C=C(c2c(-n3cnnn3)ccc(Cl)c2F)C[C@H]2CC[C@@H](c3ncc(-c4ccnc(CO)c4F)[nH]3)N12 [Compound of formula (I-A), (3S,8aR)-7-(3-Chloro-2-fluoro-6-(1H-tetrazol-1-yl)phenyl)-3-(5-(3-fluoro-2-(hydroxymethyl)pyridin-4-yl)-1H-imidazol-2-yl)-2,3,8,8a-tetrahydroindolizin-5(1H)-one]
- in vitro MNT assay result: negative
